# Test results as given in article PMC8895377, “In Vivo Targeting Replication Protein A for Cancer Therapy” (Frontiers in Oncology, 2022).
# Tests used:
# H460 cells [1] = assay: DNA fiber analysis of replication fork dynamics; assay type: cell-based, human
# Procedure: Analysis of DNA replication intermediates was performed as previously described with minor modifications ([11], [12]). H460 cells were seeded in 6-well plates at a density of 2 × 10^5 cells. […] After harvesting, the cells were resuspended in PBS at a concentration of 1,000,000 cells/ml, and 2 µl of the cell suspension was mixed with 8 µl of lysis buffer (200 mM Tris-HCl pH 7.5, 50 mM EDTA, 0.5% SDS) on a Superfrost Plus microscope slide (Fisher Scientific). After 6 min of incubation, the slides were tilted at a 45-degree angle to allow cell lysates to slowly run down the slide. After air-drying, the slides were fixed in methanol:acetic acid (3:1) and stored at 4°C. DNA fibers were denatured with 2.5N HCl for 1 h, washed with PBS, and blocked with 5% BSA in PBS-T (PBS + 0.1% Tween-20) for 1 h. […] Excess antibodies were removed by washing with PBS-T 3 times. After air-drying, the slides were mounted onto a coverslip with mounting medium. Fiber tracts were imaged with a Nikon epifluorescence microscope using a 40× oil immersion objective, and 100 fibers for each group were analyzed in ImageJ where the ratios of CldU : IdU were compared using pixel length. Data were analyzed by ANOVA with Bonferroni test for multiple comparisons.
# (A) Schematic depiction of experimental design. DNA was pulse-labeled with IdU for 20 min. After IdU removal, replication forks were stalled by the addition of HU or left to replicate with vehicle treatment. HU was removed, and replication was labeled with CldU. Following CldU, cells were treated with the DDRi or vehicle. […] Data presented are combined from three individual experiments (100 fibers analyzed per experiment; 300 fibers total). Red bar indicates the median value of CldU/IdU.
# H460 cells [2] = assay: Chou-Talalay combination studies with RPAi 329; assay type: cell-based, human; settings: H460, combination with RPAi 329
# Procedure: To assess synergy, the combination index (CI) was determined as described by Chou-Talalay as we have previously described ([8]). Briefly, H460 cells were treated with RPAi and the indicated agent alone and in combination. […] The data from both the single-agent treatments and the combination treatment were used to calculate the CI and plot this value as a function of the fraction of cells affected (Fa). A CI of >1 indicates antagonism between the two agents, while a CI <1 indicates synergy.
# (A) Chou-Talalay analysis of combination with chemotherapeutics. […] (B) Chou-Talalay analysis of combination with DDR-targeted agents as described in panel (A).
# [3] = target: Escherichia coli single strand binding protein (SSB) (Escherichia coli, UniProt P0AGE0); assay: EMSA internal specificity control, SSB–ssDNA complex; settings: internal specificity control in EMSA
# Procedure: (§1) EMSAs were performed as previously described ([9]). Briefly, reactions were conducted in 20 mM HEPES (pH 7.8), 1 mM DTT, 0.001% NP-40, and 50 mM NaCl. RPAis were suspended in 100% dimethlysulfoxide (DMSO), and DMSO concentration in the final reaction mixture was constant at less than 5%. Purified full-length RPA (120 ng) was incubated with the indicated RPAi or vehicle in reaction buffer for 30 min before the addition of the [^32]P-labeled 34-base ssDNA probe. Reactions were incubated for 5 min at room temperature, and products were separated via 6% native polyacrylamide gel electrophoresis. The bound and unbound fractions were quantified by phosphor-imager analysis using ImageQuant software (Molecular Dynamics, CA), and data were fit by non-linear regression using GraphPad Prism.
# (§2) Figure 2 Replication protein A inhibitor (RPAi) inhibitory activity. (A) Chemical structure of RPAi’s 329 and 2004. (B) EMSA analysis of RPA–DNA interaction inhibition by 329 and 2004. Lanes 3–6 in each panel contain 6.25, 12.5, 25, and 50 µM of the indicated RPAi, respectively. The * indicates the position of the Escherichia coli SSB–single-stranded DNA (ssDNA) complex that serves as an internal specificity control. (C) Cell viability of H460 NSCLC cells in response to 329 and 2004.
# [4] = target: T1, RPA–DNA interaction (purified full-length RPA) (Homo sapiens, UniProt P27694); assay: EMSA of RPA–DNA interaction inhibition; assay type: binding; settings: 6.25, 12.5, 25, 50 µM RPAi
# T1 construct: Purified full-length RPA (120 ng) was incubated with the indicated RPAi
# Procedure: as §1, §2
# [5] = system: A549 adenocarcinoma and H460 large cell carcinoma; set-up: method as in doi:10.1101/2020.11.30.404640; settings: both models, differing dosing regimens, DMSO/Tween; cited from earlier work
# H460 NSCLC cells = assay: CCK-8 viability assay; assay type: cell-based, human; settings: H460, 48 h, compared to 551 predecessor
# Procedure: Cell lines were obtained from ATCC and maintained as monolayer cultures in RPMI 1640 medium (H460) or Dulbecco’s Modified Eagle's Medium (DMEM) (A549) supplemented with 10% fetal bovine serum. H460 and A549 cells were plated at 2.5 × 10^3 cells/well and A2780 and GCT27 cells plated at 5 × 10^3 cells/well in a 96-well plate and incubated for 18–24 h prior to treatments. Cells were treated with the indicated concentration of RPAi for 48 h. The vehicle (DMSO) concentration was held constant at 1%. Cell metabolism/viability was assessed by a mitochondrial metabolism assay (CCK-8) as we have described previously ([10]). The generation of the water-soluble formazan product by cellular dehydrogenases is proportional to the number of living cells. Following incubation with CCK-8 reagent, absorbance was measured at 450 nm with a BioTek Synergy H1 plate reader. Values were compared to those of vehicle-treated controls to determine percent viability, and the results represent the average and SEM of triplicate determinations.
# [6] = set-up: method as in PMID 32550990; settings: cited from earlier work
# H460 cells [7] = assay: Caspase 3/7 apoptosis assay; assay type: cell-based, human; settings: H460, 24 h
# Procedure: Apoptosis induction was determined by activation of Caspases 3 and 7 using the CellEvent™ Caspase-3/7 Green Detection Reagent (Invitrogen). H460 cells were plated at 5 × 10^3 cells/well in black 96-well plates with clear bottoms (Costar) and incubated for 24 h prior to treatments. Cells were treated with the indicated concentration of RPAi or cisplatin for 24 h. The vehicle (DMSO) concentration was held constant at 1% for RPAi treatments. For caspase 3/7 detection, medium was removed and replaced with phosphate buffered saline (PBS) containing 5% fetal bovine serum (FBS) and 2 µM CellEvent™ Caspase-3/7 Green Detection Reagent. Cells were incubated at 37°C/5% CO2 for 1 h, and fluorescence intensity was measured in a BioTek Synergy H1 plate reader (excitation/emission 485/528). Images were captured with an Evos FL2 Auto microscope (Invitrogen) using a 10× objective.
# Figure 3 The 329 induction of apoptotic cell death. (A) Analysis of caspase 3/7 activity in H460 cells following 24 h of treatment with 1% DMSO or the indicated concentrations of 329. Fluorescence images were captured as described in the Materials and Methods. (B) Quantification of caspase 3/7 activity. Fluorescence was measured in 96-well plates using a Biotek Synergy H1 plate reader following 24-h incubation with the indicated drugs and concentrations.
# [8] = system: lung cancer xenograft models; settings: cited from earlier work
# [9] = cited from earlier work
# Chain of Escherichia coli single strand binding protein (SSB) (P0AGE0 2-178): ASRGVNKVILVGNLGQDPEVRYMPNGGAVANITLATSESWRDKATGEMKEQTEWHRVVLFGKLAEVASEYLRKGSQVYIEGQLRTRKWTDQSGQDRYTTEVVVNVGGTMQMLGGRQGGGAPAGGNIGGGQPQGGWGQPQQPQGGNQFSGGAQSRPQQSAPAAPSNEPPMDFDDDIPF
# T1 sequence (P27694 whole entry): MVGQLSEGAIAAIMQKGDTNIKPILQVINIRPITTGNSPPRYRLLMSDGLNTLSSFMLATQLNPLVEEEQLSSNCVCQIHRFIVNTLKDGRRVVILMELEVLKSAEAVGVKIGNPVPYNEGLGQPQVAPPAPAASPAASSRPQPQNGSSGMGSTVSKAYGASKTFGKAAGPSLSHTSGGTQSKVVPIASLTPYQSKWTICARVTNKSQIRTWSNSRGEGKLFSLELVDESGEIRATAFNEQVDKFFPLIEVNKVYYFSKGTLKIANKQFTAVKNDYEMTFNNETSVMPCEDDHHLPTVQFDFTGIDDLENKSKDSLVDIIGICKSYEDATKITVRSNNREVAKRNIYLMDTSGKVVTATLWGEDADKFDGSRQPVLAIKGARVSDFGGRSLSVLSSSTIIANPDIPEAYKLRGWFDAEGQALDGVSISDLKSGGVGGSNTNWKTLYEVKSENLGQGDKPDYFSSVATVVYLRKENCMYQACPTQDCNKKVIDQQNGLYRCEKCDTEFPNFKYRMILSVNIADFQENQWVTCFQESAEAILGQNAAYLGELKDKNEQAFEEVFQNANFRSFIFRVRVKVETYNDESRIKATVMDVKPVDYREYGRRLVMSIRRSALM
# T1 sequence (P15927 whole entry partner): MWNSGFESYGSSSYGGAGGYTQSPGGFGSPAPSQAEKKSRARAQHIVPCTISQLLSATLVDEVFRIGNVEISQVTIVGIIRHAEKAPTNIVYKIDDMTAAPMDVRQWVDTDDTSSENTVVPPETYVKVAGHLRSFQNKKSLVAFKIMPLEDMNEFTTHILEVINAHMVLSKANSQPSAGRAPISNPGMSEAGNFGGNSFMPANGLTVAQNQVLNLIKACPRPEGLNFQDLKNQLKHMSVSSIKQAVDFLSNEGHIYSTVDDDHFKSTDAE
# T1 sequence (P35244 whole entry partner): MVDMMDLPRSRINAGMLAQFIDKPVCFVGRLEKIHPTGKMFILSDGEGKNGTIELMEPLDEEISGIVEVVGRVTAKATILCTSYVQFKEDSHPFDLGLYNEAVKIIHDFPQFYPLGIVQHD
smiles,measurement,setting,value
N=C1NC(=O)/C(=C/c2ccc(O)cc2)S1 [mirin],reversal of the CldU/IdU decrease,"H460 cells [1]; H460, HU then ATRi or RPAi",reversible
O=C1NC(=O)c2c1c(-c1ccccc1Cl)cc1[nH]c3ccc(O)cc3c21 [Wee1 inhibitor],synergy with RPAi 329 (Chou-Talalay),H460 cells [2],antagonistic or additive
CCOc1ccc2cc(C3CC(c4ccc(Br)cc4)=NN3C(=O)CCCC(=O)NCCCN3CCOCC3)c(Cl)nc2c1 (centres unmarked) [compound 2004],interaction of E. coli SSB with ssDNA,[3],not impacted
same,"RPA inhibitory activity (RPA–DNA interaction, EMSA)",[4],potent RPA inhibitory activity
same,single-agent anticancer activity in vivo,[5],only modest single-agent anticancer activity
same,single-agent cellular anticancer activity (CCK-8),H460 NSCLC cells,potent single-agent activity
same,"solubility, cellular uptake, and physicochemical properties",[6],excellent
Cn1ncnc1[C@H]1c2n[nH]c(=O)c3cc(F)cc(c23)N[C@@H]1c1ccc(F)cc1 [BMN637],synergy with RPAi 329 (Chou-Talalay),H460 cells [2],modest synergy
CNCc1ccc(-c2cc(-c3nc(-c4ccc(S(=O)(=O)C(C)C)cc4)cnc3N)on2)cc1 [VE-822],CldU/IdU signal after HU,"H460 cells [1]; H460, HU 2.5 mM then 329 50 µM or VE-822 2 µM",significant decrease in CldU/IdU signal
same,"CldU/IdU, inhibitor alone","H460 cells [1]; H460, without HU, 329 50 µM, VE-822 2 µM, 2 h",minimal effects
CCOc1ccc2cc(C3CC(c4ccc(I)cc4)=NN3C(=O)CCCC(=O)O)c(Cl)nc2c1 (centres unmarked) [compound 551],activation of caspases 3 and 7,H460 cells [7],inability to detect caspase activity
same,"tumor growth delay, combination with carboplatin","[8]; NSCLC xenograft models, reduced doses of carboplatin and 551, versus each agent alone",greater than additive effect on tumor growth delay
same,in vivo activity,[8],modest in vivo activity
same,caspase activation or annexin V/PI positivity,[9],not accompanied by caspase activation or annexin V/PI positivity
